How the values were obtained:
[1] = dog, in vivo
Method: The derived pharmacokinetic parameters included: 1, time for the maximum concentration to be reduced by 1/2 (t-1/2); 2, area under the plasma concentration curve (AUC); 3, maximum plasma concentration (C-max); 4, time to reach C-max (t-max); 5, mean resident time (MRT); and 6, percent of recovery of administered H3 dose in urine in 72 hours (U%).
Here, determination was made of the release characteristics of the DIMAC synthetic resin matrix system embodied with the drug urapidil fumerate (UPD) following oral administration to conscious dogs, in an identical procedure to that described in EXAMPLE 4.
The UPD dose administered in DIMAC matrix was 10 mg/kg, and the same dose was used in the control solution.

[2] = dog, in vivo, po
Method: Approximately 75 uCi of isotopically labelled DTZ or UPD was blended into their respective slurry prior to filling the gelatin capsule. The isotopically labelled compositions were allowed to set-up prior to rejoining the filled upper and lower capsule compartments. Curing proceeded overnight, with animal dosing performed at 8:00 a.m. the following morning. The control DIMAC matrix samples without drug were prepared in an identical manner.
Six conscious dogs, three males and three females, one of each sex in three treatment groups were used in this study. The oral dose of DTZ was 30 mg/kg, while that for UPD was 10 mg/kg.
Blood samples were drawn at 0-time immediately prior to dosing, and at 0.5, 1.0, 2.0, 4.0, 6.0, 8.0, 24, and 32 hours after oral administration of the three test preprations. One ml of plasma, suitably prepared was counted for 5-minutes for level of radioactivity (dpm).

Substance | magnitude of delayed and extended duration release indices compared with EXAMPLE 3 [1] | percent change of t1/2 of DIMAC from solution control [1] | statistical significance of change over solution control [1] | percent change of U % (recovery of administered dose in urine in 72 hours) of DIMAC from solution control ([1]; 4320 min) | percent of dose released from DIMAC matrix during the 8-hour period [2] | time of peak plasma radioactivity ([2]; 10 mg/kg)
urapidil fumerate [DIMAC matrix UPD] | far less | +40% | statistically significant change in C-max, t-max, MRT, and t-1/2 | +8% |  | 
urapidil fumerate [UPD] |  |  |  |  | at least 50% | 2 h

— US4747845A, “Synthetic resin matrix system for the extended delivery of drugs” (priority 1986, dated 1988)
